11 compounds from patent publication US9278950B2, “Bicyclic aromatic carboxamide compounds useful as Pim kinase inhibitors” (Incyte Corporation, priority 2013, dated 2016) can be followed below.

Common to all, as to assay type: biochemical
One assay has as its target T1, Pim-1 (Homo sapiens, UniProt P11309).
T1 construct: purchased Invitrogen PV3503
As to the kind of experiment: Pim-1 kinase assay (Pim enzyme assays, Example A). The settings on record: 1 mM ATP; read-out: Pim1 IC50. How it is done:
(§1) Pim-1 and Pim-3 kinase assays-20 μL reactions were run in white 384 well polystyrene plates dotted with 0.8 μL compound/DMSO in the assay buffer (50 mM Tris, pH 7.5, 0.01% Tween-20, 5 mM mgCl2, 0.01% BSA, 5 mM DTT), containing 0.05 μM Biotin-labeled BAD peptide substrate (AnaSpec 62269), 1 mM ATP, and […] (Pim-1, Invitrogen PV3503) or […] (Pim-3, Millipore 14-738) enzyme for 1 h at 25° C. Reactions were stopped by addition of 10 μL STOP Buffer (150 mM Tris, pH=7.5, 150 mM NaCl, 75 mM EDTA, 0.01% Tween-20, 0.3% BSA,) supplemented with Phospho-Bad (Ser 12) Antibody (Cell Signaling 9291) diluted 666-fold, and Streptavidin donor beads (PerkinElmer 6760002) along with Protein-A acceptor beads (PerkinElmer 6760137) at 15 μg/mL each. Supplementation of the STOP buffer with beads and stopping the reactions were done under reduced light. Prior to the stopping reactions STOP buffer with beads was preincubated for 1 h in the dark at room temperature. After stopping the reactions, plates were incubated for 1 h in the dark at room temperature before reading on a PHERAstar FS plate reader (BMG Labtech) under reduced light.

The next assay has as its target T2, Pim2 (Homo sapiens, UniProt Q9P1W9).
T2 construct: purchased Invitrogen PV3649
The assay can be described thus: Pim-2 kinase assay (Pim enzyme assays, Example A). The settings on record: 1 mM ATP; read-out: Pim2 IC50. As for the experimental part:
Pim-2 kinase assay—20 μL reactions were run in white 384 well polystyrene plates dotted with 0.8 μL compound/DMSO in the assay buffer (50 mM Tris, pH 7.5, 0.01% Tween-20, 5 mM mgCl2, 0.01% BSA, 5 mM DTT), containing 0.05 μM Fluorescein-labeled CREBtide peptide substrate (Invitrogen PV3508), 1 mM ATP, and 1 nM enzyme (Invitrogen PV3649) for 2 h at 25° C. Reactions were stopped by addition of 10 μL TR-FRET Dilution Buffer (Invitrogen PV3574) with 30 mM EDTA and 1.5 nM LanthaScreen Tb-CREB pSer133 antibody (Invitrogen PV3566). After 30 min. incubation at room temperature, plates were read on a PHERAstar FS plate reader (BMG Labtech).

A further assay addresses T3, Pim-3 (Homo sapiens, UniProt Q86V86).
T3 construct: purchased Millipore 14-738
As to the kind of experiment: Pim-3 kinase assay (Pim enzyme assays, Example A). The settings on record: 1 mM ATP; read-out: Pim3 IC50. How it is done: as §1

Each structure is given as a SMILES string.

T2 sequence (Q9P1W9 whole entry): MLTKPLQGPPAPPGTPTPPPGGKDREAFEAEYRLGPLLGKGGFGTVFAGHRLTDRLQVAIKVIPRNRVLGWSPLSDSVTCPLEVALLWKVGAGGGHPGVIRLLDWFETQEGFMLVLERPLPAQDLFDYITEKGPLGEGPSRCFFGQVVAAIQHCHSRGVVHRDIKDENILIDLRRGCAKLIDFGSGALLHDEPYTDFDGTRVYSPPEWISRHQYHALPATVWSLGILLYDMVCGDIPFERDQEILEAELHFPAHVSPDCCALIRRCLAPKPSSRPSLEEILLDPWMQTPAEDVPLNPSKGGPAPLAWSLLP
T1 sequence (P11309 whole entry): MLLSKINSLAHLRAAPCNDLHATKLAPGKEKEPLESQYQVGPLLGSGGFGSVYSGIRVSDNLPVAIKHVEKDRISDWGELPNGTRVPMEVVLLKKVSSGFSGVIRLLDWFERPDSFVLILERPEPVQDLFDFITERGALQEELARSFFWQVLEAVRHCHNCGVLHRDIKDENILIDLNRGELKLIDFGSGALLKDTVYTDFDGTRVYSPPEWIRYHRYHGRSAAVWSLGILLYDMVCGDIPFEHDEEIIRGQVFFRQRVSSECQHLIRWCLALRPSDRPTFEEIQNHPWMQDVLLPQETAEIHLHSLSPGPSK

Turning to `CC(C)c1ccc2cc(N)c(C(=O)Nc3cnccc3N3CCC[C@H](N)C3)nc2c1` [Example 9, 3-Amino-N-{4-[(3S)-3-aminopiperidin-1-yl]pyridin-3-yl}-7-isopropylquinoline-2-carboxamide], the IC50 on Pim-1, on Pim2 and on Pim-3 was no more than 100 nM each time.
In the case of `CCc1ccc2cc(N)c(C(=O)Nc3cnccc3N3CCC[C@H](N)C3)nc2c1` [Example 10, 3-Amino-N-{4-[(3S)-3-aminopiperidin-1-yl]pyridin-3-yl}-7-ethylquinoline-2-carboxamide], the 50% inhibitory concentration (IC50) on Pim-1, on Pim2 and on Pim-3 was no more than 100 nM each time.
Regarding `Nc1cc2ccccc2nc1C(=O)Nc1cnccc1N1CCC[C@H](N)C1` [Example 11, 3-Amino-N-{4-[(3S)-3-aminopiperidin-1-yl]pyridin-3-yl}quinoline-2-carboxamide], the concentration for half-maximal inhibition (IC50) (in general, the concentration that inhibits the measured activity by half) at Pim-1 was no more than 100 nM; on Pim2 it was 100 to 1000 nM; at Pim-3, no more than 100 nM.
Regarding `Nc1cc2ccc(Br)cc2nc1C(=O)Nc1cnccc1N1CCC[C@H](N)C1` [Example 12, 3-Amino-N-{4-[(3S)-3-aminopiperidin-1-yl]pyridin-3-yl}-7-bromoquinoline-2-carboxamide], the IC50 was no more than 100 nM at Pim-1, 100 to 1000 nM on Pim2 and no more than 100 nM on Pim-3.
Consider `N#CCc1ccc2cc(N)c(C(=O)Nc3cnccc3N3CCC[C@H](N)C3)nc2c1` [Example 13, 3-Amino-N-{4-[(3S)-3-aminopiperidin-1-yl]pyridin-3-yl}-7-(cyanomethyl)quinoline-2-carboxamide], for which the half-maximal inhibitory concentration (IC50) at Pim-1 was no more than 100 nM; on Pim2, 100 to 1000 nM; at Pim-3 it was no more than 100 nM.
As for `CCc1cc2nc(C(=O)Nc3cnccc3N3CCC[C@H](N)C3)c(N)cc2cc1F` [Example 14, 3-Amino-N-{4-[(3S)-3-aminopiperidin-1-yl]pyridin-3-yl}-7-ethyl-6-fluoroquinoline-2-carboxamide], the IC50 was no more than 100 nM at Pim-1, 100 to 1000 nM on Pim2 and no more than 100 nM on Pim-3.
For `CC(O)c1ccc2cc(N)c(C(=O)Nc3cnccc3N3CCC[C@H](N)C3)nc2c1` (stereo partly drawn) [Example 15, 3-Amino-N-{4-[(3S)-3-aminopiperidin-1-yl]pyridin-3-yl}-7-(1-hydroxyethyl)quinoline-2-carboxamide], the values for the IC50 at Pim-1, on Pim2 and at Pim-3 were no more than 100 nM, 100 to 1000 nM and no more than 100 nM, respectively.
With `CC(C)(O)c1ccc2cc(N)c(C(=O)Nc3cnccc3N3CCC[C@H](N)C3)nc2c1` [Example 16, 3-Amino-N-{4-[(3S)-3-aminopiperidin-1-yl]pyridin-3-yl}-7-(1-hydroxy-1-methylethyl)quinoline-2-carboxamide], the IC50 at Pim-1 was no more than 100 nM; at Pim2, 100 to 1000 nM; on Pim-3 it was no more than 100 nM.
As to `Nc1cc2ccc(C(O)c3ccccc3)cc2nc1C(=O)Nc1cnccc1N1CCC[C@H](N)C1` (stereo partly drawn) [Example 17, 3-Amino-N-{4-[(3S)-3-aminopiperidin-1-yl]pyridin-3-yl}-7-[hydroxy(phenyl)methyl]quinoline-2-carboxamide], the results for the IC50 on Pim-1, at Pim2 and at Pim-3 were no more than 100 nM, greater than 2000 nM and no more than 100 nM, respectively.
Take `CC(F)c1ccc2cc(N)c(C(=O)Nc3cnccc3N3CCC[C@H](N)C3)nc2c1` (stereo partly drawn) [Example 18, 3-Amino-N-{4-[(3S)-3-aminopiperidin-1-yl]pyridin-3-yl}-7-(1-fluoroethyl)quinoline-2-carboxamide]: the IC50 is no more than 100 nM on Pim-1, 100 to 1000 nM on Pim2 and no more than 100 nM at Pim-3.
Turning to `Nc1cc2ccc(CN3CCCC3)cc2nc1C(=O)Nc1cnccc1N1CCC[C@H](N)C1` [Example 19, 3-Amino-N-{4-[(3S)-3-aminopiperidin-1-yl]pyridin-3-yl}-7-(pyrrolidin-1-ylmethyl)quinoline-2-carboxamide], the IC50 is no more than 100 nM on Pim-1, greater than 2000 nM at Pim2 and no more than 100 nM on Pim-3.
